Data from patent publication US20060004195A1, “Alpha,beta-unsaturated esters and acids by stereoselective dehydration” (priority 2004, published 2006).

COc1ccc(-n2nc(C[C@H](C(=O)[O-])c3cccc(C)c3)cc2-c2ccc(Cl)c(Cl)c2)cc1.[Na+] (stereo in doubt)
melting point: 295.5 to 297.5 °C

O=C(O)/C(=C\c1cc(-c2ccc3c(c2)OCO3)n(-c2cc(Cl)ccc2Cl)n1)c1cccc(Cl)c1 [Example 606, (Z)-3-[5-Benzo[1,3]dioxol-5-yl-1-(2,5-dichloro-phenyl)-1H-pyrazol-3-yl]-2-(3-chloro-phenyl)-acrylic acid]
melting point: 174 °C
